Laboratory results: article PMC10862539, “Chelation of Mitochondrial Iron as an Antiparasitic Strategy” (ACS Infectious Diseases, 2024)
Where two headings read alike, the source gives them in different places.

Columns and labels:
[1] = system: Trypanosoma brucei 427 bloodstream forms; experiment: T. brucei growth curves and doubling time (flow cytometry); format: cell-based; conditions: for Average doubling time: calculated between 24 and 48 h
Description: Bloodstream T. brucei 427 cells were inoculated to a concentration of […] and incubated with the addition of mitoDFO (0.025 and 0.1 μM) or DFO (2.5 and 10 μM) in aerobic flasks in a total volume of 5 mL in 5% CO2 at 37 °C. Control with no compound was used to obtain reference values. At time points 24, 36, 48, and 72 h, a 20 μL sample was collected, diluted in growth medium, and measured on a Guava EasyCyte 8HT flow cytometer (Luminex) to assess concentration in previously experimentally prepared settings. The culture was simultaneously observed by light microscopy to confirm the cell viability. The growth curve was plotted by using Prism 8.0 (GraphPad Software). All conditions were measured in three biologically independent replicates. Doubling time was calculated between 24 and 48 h time points using the online calculator,[45] and each of the conditions was compared to the untreated culture using a two-tailed unpaired t-test.

[2] = system: mitochondrial threonine dehydrogenase; experiment: Threonine dehydrogenase activity in mitochondrial fraction of treated T. brucei 427; format: cell-based, Trypanosoma brucei; conditions: 0.12 μM compound, 24 h
Description: T. brucei 427 bloodstream forms were preincubated for 24 h in appropriate conditions (0.12 μM mitoDFO, 0.12 μM DFO, and no addition) and harvested, and cytosolic and mitochondrial fractions were separated by digitonin fractionation as described previously.[46] Briefly, cells were spun down (1200 g, 15 min, 4 °C) and resuspended in SHE buffer (250 mM sucrose, 25 mM HEPES, 1 mM EDTA, pH 7.4), and protein concentration was measured using a BCA kit (Sigma-Aldrich). Subsequently, cells were transferred into HBSS (Sigma-Aldrich) and digitonin (Calbiochem) was added in the protein/digitonin ratio of 1/0.15 for 4 min and spun (21 000 g, 2 min, 4 °C). […] The activities of cytosolic pyruvate kinase and mitochondrial threonine dehydrogenase were assessed in all conditions using the spectrophotometric assay at […], as described in ref ([46]), and served both as markers of successful fraction preparation and to assess the effect of the studied compounds. Briefly, pyruvate kinase was measured in TEA buffer (0.1 M triethanolamine, 5 mM MgSO4, 50 mM KCl, pH 7.6) with added 2.8 mM phosphoenolpyruvate, 2 mM ADP, 0.3 mM NADH, and lactate dehydrogenase. Threonine dehydrogenase was measured in 0.2 M Tris–HCl buffer, pH 8.6, 0.25 KCl with 120 mM threonine, and 2.5 mM NAD^+. Fumarase was measured at […] in 2 mM Tris–HCl buffer, pH 7.5, with 20 mM malate.

[3] = system: T. gambiense (BSF); experiment: Drug sensitivity assay, T. gambiense bloodstream form (resazurine); format: cell-based, Trypanosoma gambiense; conditions: for selectivity (for −Fe): EC50 human fibroblasts / EC50 T. gambiense (BSF); for EC50: Trypanosoma brucei, 72 h
Description: (§1) All organisms were cultivated according to the conditions summarized in Table S2, which also includes strain specifications. Dose–response curves were obtained by their cultivation on 96 well plates in a 2-fold series dilution of the appropriate drug, in a total volume of 200 μL (with the exception of P. falciparum, where the total volume was 100 μL). Iron supplementation was achieved by mixing the compound with Fe-NTA in an equimolar ratio prior to setting up the experiment. Results were plotted and processed using Prism 8.0 (GraphPad Software). A two-tailed unpaired t-test was performed to assess the significance of the difference between mitoDFO with and without added iron. Selectivity was calculated as the ratio of the average EC50 value for human fibroblasts to the average EC50 value for the appropriate pathogen. All data were obtained from a minimum of three independent biological replicates.

[4] = system: T. brucei STIB (BSF); experiment: Drug sensitivity assay, T. brucei STIB bloodstream form (resazurine); format: cell-based, Trypanosoma brucei; conditions: for selectivity (for −Fe): EC50 human fibroblasts / EC50 T. brucei STIB (BSF); for EC50: Trypanosoma brucei, 72 h
Description: as §1

[5] = system: murine macrophage; experiment: Murine macrophage axenic monoculture EC50; format: cell-based, mouse; conditions: Mus musculus, Macrophage, read-out: EC50 axenic murine macrophage
[6] = system: C. albicans; experiment: Drug sensitivity assay, C. albicans (OD600); format: cell-based, Candida albicans; conditions: for EC50: Candida albicans, 48 h
Description: as §1

[7] = system: murine macrophage; experiment: Intracellular L. mexicana infection assay, macrophage population; format: cell-based, mouse; conditions: Mus musculus, Macrophage, read-out: EC50 infection assay murine macrophage
Description: Approximately 10 000 murine macrophages per well were seeded on 96 well plate, and a suspension of 60 000 L. mexicana GFP-expressing promastigotes was added to each well and left to infect the mammal cells for 72 h in a cultivation medium under the conditions described in Table S2. 2-fold dilution series starting with 100 μM of either mitoDFO, DFO, or Amphotericin B in a regular growth medium were added, and cultures were incubated for further 72 h in the same conditions. Macrophage cells were washed and resuspended in growth medium and detached by pipetting, and their concentration in each well was measured on a Guava EasyCyte 8HT flow cytometer (Luminex). The GFP signal of internalized L. mexicana amastigotes in each macrophage was detected using a 488 nm excitation laser and a 525/30 nm detector. Median fluorescence graphs were plotted, and EC50 values for both macrophages and intracellular L. mexicana were calculated using Prism 8.0 (GraphPad Software).

[8] = system: A. castellanii; experiment: Drug sensitivity assay, A. castellanii (flow cytometry); format: cell-based, Acanthamoeba castellanii; conditions: for EC50: Acanthamoeba castellanii, 96 h; for selectivity (for −Fe): EC50 human fibroblasts / EC50 A. castellanii
Description: as §1

[9] = system: iron-containing fumarase; experiment: Fumarase activity in cytosolic and mitochondrial fractions of treated T. brucei 427; format: cell-based, Trypanosoma brucei; conditions: 0.12 μM compound, 24 h; for reduction of cytosolic fumarase activity: cytosolic fraction; for reduction of mitochondrial fumarase activity: mitochondrial fraction
Description: T. brucei 427 bloodstream forms were preincubated for 24 h in appropriate conditions (0.12 μM mitoDFO, 0.12 μM DFO, and no addition) and harvested, and cytosolic and mitochondrial fractions were separated by digitonin fractionation as described previously.[46] Briefly, cells were spun down (1200 g, 15 min, 4 °C) and resuspended in SHE buffer (250 mM sucrose, 25 mM HEPES, 1 mM EDTA, pH 7.4), and protein concentration was measured using a BCA kit (Sigma-Aldrich). Subsequently, cells were transferred into HBSS (Sigma-Aldrich) and digitonin (Calbiochem) was added in the protein/digitonin ratio of 1/0.15 for 4 min and spun (21 000 g, 2 min, 4 °C). The supernatant was collected and placed on ice as a cytosolic fraction. The remaining pellet was lysed using 0.1% Triton X-100 in HBSS for 5 min, resuspended, washed in HBSS twice, and used as a mitochondrial fraction. The activities of cytosolic pyruvate kinase and mitochondrial threonine dehydrogenase were assessed in all conditions using the spectrophotometric assay at […], as described in ref ([46]), and served both as markers of successful fraction preparation and to assess the effect of the studied compounds. Briefly, pyruvate kinase was measured in TEA buffer (0.1 M triethanolamine, 5 mM MgSO4, 50 mM KCl, pH 7.6) with added 2.8 mM phosphoenolpyruvate, 2 mM ADP, 0.3 mM NADH, and lactate dehydrogenase. Threonine dehydrogenase was measured in 0.2 M Tris–HCl buffer, pH 8.6, 0.25 KCl with 120 mM threonine, and 2.5 mM NAD^+. Fumarase was measured at […] in 2 mM Tris–HCl buffer, pH 7.5, with 20 mM malate.

[10] = system: L. mexicana (amastigote); experiment: Drug sensitivity assay, axenic L. mexicana amastigote (flow cytometry); format: cell-based, Leishmania mexicana; conditions: for EC50: Leishmania mexicana
Description: as §1

[11] = system: G. intestinalis; experiment: Drug sensitivity assay, G. intestinalis (flow cytometry); format: cell-based; conditions: for EC50: Giardia duodenalis, 24 h
Description: as §1

[12] = system: C. neoformans; experiment: Drug sensitivity assay, C. neoformans (OD600); format: cell-based, Cryptococcus neoformans; conditions: for EC50: Cryptococcus neoformans, 72 h
Description: as §1

[13] = system: B. divergens; experiment: Drug sensitivity assay, B. divergens in bovine erythrocytes (flow cytometry); format: cell-based, Babesia divergens; conditions: for EC50: Babesia divergens, Erythrocyte, 48 h; for selectivity (for −Fe): EC50 human fibroblasts / EC50 B. divergens
Description: as §1

[14] = approximately half the EC50 concentration of the compound
[15] = axenic monoculture, read-out: EC50 axenic Leishmania mexicana
[16] = iron-free compound, L. mexicana (amastigote), 120 h, read-out: EC50 –Fe
[17] = pre-treated with equimolar iron, L. mexicana (amastigote), 120 h, read-out: EC50 +Fe

With CC(=O)N(O)CCCCCNC(=O)CCC(=O)N(O)CCCCCNC(=O)CCC(=O)N(O)CCCCCN [DFO, Deferoxamine, reference compound] the Average doubling time ([1]; 2.5 μM DFO) was 8.28 h, the Average doubling time ([1]; 10 μM DFO) was 14.17 h and the “cell proliferation (growth curve)” value [1, 14] was “slows down cell proliferation”. The threonine dehydrogenase activity [2] was “not”, the “selectivity (for −Fe)” value [3] was greater than 40 and the EC50 ([3]; iron-free compound, T. gambiense (BSF), read-out: EC50 –Fe) was 2.47 ± 1.16 µM. The EC50 ([3]; pre-treated with equimolar iron, T. gambiense (BSF), read-out: EC50 +Fe) was greater than 25 µM, the “selectivity (for −Fe)” value [4] was greater than 38 and the EC50 ([4]; iron-free compound, T. brucei STIB (BSF), read-out: EC50 –Fe) was 2.61 ± 0.753 µM. The EC50 ([4]; pre-treated with equimolar iron, T. brucei STIB (BSF), read-out: EC50 +Fe) was 14.5 ± 1.18 µM, the EC50 ([5]; axenic monoculture) was greater than 25 µM and the EC50 ([6]; iron-free compound, C. albicans, read-out: EC50 –Fe) was greater than 100 µM. The EC50 ([6]; pre-treated with equimolar iron, C. albicans, read-out: EC50 +Fe) was greater than 100 µM, the EC50 ([7]; infected macrophages, 72 h treatment) was 45.3 ± 3.09 µM and the EC50 ([8]; iron-free compound, A. castellanii, read-out: EC50 –Fe) was 8.9 ± 0.6 µM. The EC50 ([8]; pre-treated with equimolar iron, A. castellanii, read-out: EC50 +Fe) was greater than 50 µM, the “selectivity (for −Fe)” value [8] was greater than 11 and the “reduction of cytosolic fumarase activity” value [9] was “no significant effect”. The “reduction of mitochondrial fumarase activity” value [9] was “no significant effect”, the EC50 [10, 15] was greater than 25 µM and the EC50 [10, 16] was greater than 25 µM. The EC50 [10, 17] was greater than 25 µM, the EC50 ([11]; iron-free compound, G. intestinalis, read-out: EC50 –Fe) was greater than 100 µM and the EC50 ([11]; pre-treated with equimolar iron, G. intestinalis, read-out: EC50 +Fe) was greater than 100 µM. For the same compound, the EC50 ([12]; iron-free compound, C. neoformans, read-out: EC50 –Fe) was greater than 100 µM, the EC50 ([12]; pre-treated with equimolar iron, C. neoformans, read-out: EC50 +Fe) was greater than 100 µM and the EC50 ([13]; iron-free compound, B. divergens, read-out: EC50 –Fe) was 10.8 ± 1.3 µM. For the same compound, the EC50 ([13]; pre-treated with equimolar iron, B. divergens, read-out: EC50 +Fe) was greater than 50 µM and the “selectivity (for −Fe)” value [13] was greater than 9.
In the case of CC(=O)N(O)CCCCCNC(=O)CCC(=O)N(O)CCCCCNC(=O)CCC(=O)N(O)CCCCCN(CCCCCCCCCC[P+](c1ccccc1)(c1ccccc1)c1ccccc1)CCCCCCCCCC[P+](c1ccccc1)(c1ccccc1)c1ccccc1 [mitoDFO], the Average doubling time ([1]; 0.025 μM mitoDFO) is reported as 8.07 h, the “cell proliferation (growth curve)” value [1, 14] is reported as “does not affect cell proliferation” and the “cell proliferation (growth curve)” value ([1]; twice the EC50 concentration) is reported as “stops its growth”. The threonine dehydrogenase activity [2] was “significantly reduced”, the “selectivity (for −Fe)” value [3] was 49 and the “DFO/mitoDFO ratio (−Fe)” value ([3]; T. gambiense (BSF)) was 13.7. The “mitoDFO EC50 ratio + Fe/–Fe” value ([3]; T. gambiense (BSF)) was 1.2, the EC50 ([3]; GAMBIENSE, read-out: EC50 –Fe) was 0.181 ± 0.043 µM and the “selectivity (for −Fe)” value [4] was 28. For the same compound, the “DFO/mitoDFO ratio (−Fe)” value ([4]; T. brucei STIB (BSF)) was 8.1, the EC50 ([4]; read-out: EC50 –Fe) was 0.32 ± 0.067 µM and the EC50 [5] was 6.34 ± 4.45 µM. The “DFO/mitoDFO ratio (−Fe)” value ([6]; C. albicans) was greater than 27.8, the “mitoDFO EC50 ratio + Fe/–Fe” value ([6]; C. albicans) was 2.6 and the EC50 ([6]; read-out: EC50 –Fe) was 3.6 ± 1.7 µM. For the same compound, the “selectivity (for −Fe)” value ([6]; EC50 human fibroblasts / EC50 C. albicans) was 2, the EC50 ([7]; 72 h) was 4.67 ± 1.18 µM and the “DFO/mitoDFO ratio (−Fe)” value ([8]; A. castellanii) was 11.1. The “mitoDFO EC50 ratio + Fe/–Fe” value ([8]; A. castellanii) was 1.3, the “selectivity (for −Fe)” value [8] was 11 and the “reduction of cytosolic fumarase activity” value [9] was “approximately 3 fold”. For the same compound, the “reduction of mitochondrial fumarase activity” value [9] was “approximately 3 fold”, the “selectivity (for −Fe)” value ([10]; EC50 human fibroblasts / EC50 L. mexicana (amastigote)) was 6 and the “DFO/mitoDFO ratio (−Fe)” value ([10]; L. mexicana (amastigote)) was greater than 15.6. The “mitoDFO EC50 ratio + Fe/–Fe” value ([10]; L. mexicana (amastigote)) was 1.5, the EC50 [10, 15] was 1.56 ± 0.5 µM and the EC50 [10, 16] was 1.6 ± 0.5 µM. For the same compound, the EC50 [10, 17] was 2.4 ± 0.5 µM, the EC50 ([11]; read-out: EC50 –Fe) was greater than 50 µM and the “effect on G. intestinalis” value ([11]; in words) was “not affected”. For the same compound, the “DFO/mitoDFO ratio (−Fe)” value ([12]; C. neoformans) was greater than 50, the “mitoDFO EC50 ratio + Fe/–Fe” value ([12]; C. neoformans) was 2.1 and the EC50 ([12]; read-out: EC50 –Fe) was 2 ± 0.5 µM. The “selectivity (for −Fe)” value ([12]; EC50 human fibroblasts / EC50 C. neoformans) was 4, the “DFO/mitoDFO ratio (−Fe)” value ([13]; B. divergens) was 4.7 and the “mitoDFO EC50 ratio + Fe/–Fe” value ([13]; B. divergens) was 2.5. The EC50 ([13]; read-out: EC50 –Fe) was 2.3 ± 0.8 µM and the “selectivity (for −Fe)” value [13] was 4.
